Columns and labels:
[1] = test system: parental MP41 and PKCi-resistant MP41 uveal melanoma cells; assay: 7-day growth inhibition assay in parental and PKC inhibitor-resistant MP41 cells; assay type: cell-based; details: FIG. 7A
Protocol: Procedure: MP41 uveal melanoma cells were made resistant to the PKC inhibitor (LXS196; MedChemExpress), by long-term culture in growth media (see Table 9) containing increasing concentrations of the compound, up to 1 micromolar. After 3 months, sensitivity of the parental MP41 cells and the PKC inhibitor (PKCi)-resistant cells to the PKC inhibitor (LXS196) or the BRG1/BRM ATPase inhibitor (Compound B) was tested in a 7-day growth inhibition assay as described above in Example 6.

BRM = target: T1, BRM (Homo sapiens, UniProt P51531); assay: ATPase catalytic activity assay (ADP-Glo), BRM; assay type: biochemical; details: Table 10; for Ratio (BRG1 IC50 (μM) divided by BRM IC50 (μM)): ATPase assay, selectivity BRG1/BRM; for IC50: ATPase catalytic activity assay (ADP-Glo)
T1 construct: made in house; host or cells: High Five insect cells
T1 sequence (P51531 whole entry): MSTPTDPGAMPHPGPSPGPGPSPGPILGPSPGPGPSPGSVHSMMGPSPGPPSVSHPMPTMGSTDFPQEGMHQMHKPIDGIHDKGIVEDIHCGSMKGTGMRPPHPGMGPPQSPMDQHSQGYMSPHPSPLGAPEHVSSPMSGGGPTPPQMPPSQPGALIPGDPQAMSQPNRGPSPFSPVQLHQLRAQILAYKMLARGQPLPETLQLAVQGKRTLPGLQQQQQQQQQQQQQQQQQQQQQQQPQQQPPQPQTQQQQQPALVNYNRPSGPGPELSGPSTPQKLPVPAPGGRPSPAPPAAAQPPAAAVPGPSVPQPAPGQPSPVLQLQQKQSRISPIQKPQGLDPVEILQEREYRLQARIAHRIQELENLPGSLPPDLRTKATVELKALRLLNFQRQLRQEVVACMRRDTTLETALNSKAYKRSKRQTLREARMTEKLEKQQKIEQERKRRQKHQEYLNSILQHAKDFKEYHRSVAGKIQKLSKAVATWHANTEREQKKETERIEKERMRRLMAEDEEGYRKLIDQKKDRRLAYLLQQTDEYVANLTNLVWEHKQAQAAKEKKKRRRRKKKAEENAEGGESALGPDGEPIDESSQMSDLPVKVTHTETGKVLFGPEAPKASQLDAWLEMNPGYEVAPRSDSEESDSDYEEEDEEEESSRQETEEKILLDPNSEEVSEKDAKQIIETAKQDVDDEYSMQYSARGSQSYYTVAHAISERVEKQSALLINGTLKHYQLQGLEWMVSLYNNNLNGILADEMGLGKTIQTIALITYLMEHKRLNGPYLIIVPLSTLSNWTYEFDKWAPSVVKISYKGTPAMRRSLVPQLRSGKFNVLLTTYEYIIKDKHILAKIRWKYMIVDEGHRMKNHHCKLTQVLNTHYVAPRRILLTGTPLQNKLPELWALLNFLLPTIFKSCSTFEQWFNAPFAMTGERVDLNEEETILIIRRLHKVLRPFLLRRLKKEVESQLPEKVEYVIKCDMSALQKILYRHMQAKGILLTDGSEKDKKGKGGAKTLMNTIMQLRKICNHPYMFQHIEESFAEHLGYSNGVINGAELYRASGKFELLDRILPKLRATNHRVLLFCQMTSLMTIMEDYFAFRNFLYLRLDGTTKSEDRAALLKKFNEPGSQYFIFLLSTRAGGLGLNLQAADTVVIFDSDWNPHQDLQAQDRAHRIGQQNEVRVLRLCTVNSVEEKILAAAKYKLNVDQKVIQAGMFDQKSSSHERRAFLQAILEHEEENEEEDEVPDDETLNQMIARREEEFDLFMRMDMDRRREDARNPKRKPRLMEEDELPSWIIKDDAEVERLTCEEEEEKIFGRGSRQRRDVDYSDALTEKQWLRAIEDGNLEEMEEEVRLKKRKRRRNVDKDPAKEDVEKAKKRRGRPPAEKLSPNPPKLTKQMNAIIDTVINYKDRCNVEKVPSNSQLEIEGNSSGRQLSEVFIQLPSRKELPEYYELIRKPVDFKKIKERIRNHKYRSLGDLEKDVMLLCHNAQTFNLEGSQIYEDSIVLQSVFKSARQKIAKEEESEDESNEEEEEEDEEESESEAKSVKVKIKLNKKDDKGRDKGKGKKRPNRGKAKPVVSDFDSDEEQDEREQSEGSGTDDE
Procedure, shortened: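 ADP-Glo luminescence measures ADP produced by BRM ATPase (30 nM) during 1 h at room temperature. ATP is 400 μM, with 20 nM salmon sperm DNA as cofactor. Buffer: 20 mM Tris pH 8, 20 mM MgCl2, 50 mM NaCl, 0.1% Tween-20, 1 mM DTT.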

BRG-1 = target: T2, BRG-1 (Homo sapiens, UniProt P51532); assay: ATPase catalytic activity assay (ADP-Glo), BRG-1; assay type: biochemical; details: Table 10, read-out: BRG1 IC50
T2 construct: made in house; host or cells: High Five insect cells
T2 sequence (P51532 whole entry): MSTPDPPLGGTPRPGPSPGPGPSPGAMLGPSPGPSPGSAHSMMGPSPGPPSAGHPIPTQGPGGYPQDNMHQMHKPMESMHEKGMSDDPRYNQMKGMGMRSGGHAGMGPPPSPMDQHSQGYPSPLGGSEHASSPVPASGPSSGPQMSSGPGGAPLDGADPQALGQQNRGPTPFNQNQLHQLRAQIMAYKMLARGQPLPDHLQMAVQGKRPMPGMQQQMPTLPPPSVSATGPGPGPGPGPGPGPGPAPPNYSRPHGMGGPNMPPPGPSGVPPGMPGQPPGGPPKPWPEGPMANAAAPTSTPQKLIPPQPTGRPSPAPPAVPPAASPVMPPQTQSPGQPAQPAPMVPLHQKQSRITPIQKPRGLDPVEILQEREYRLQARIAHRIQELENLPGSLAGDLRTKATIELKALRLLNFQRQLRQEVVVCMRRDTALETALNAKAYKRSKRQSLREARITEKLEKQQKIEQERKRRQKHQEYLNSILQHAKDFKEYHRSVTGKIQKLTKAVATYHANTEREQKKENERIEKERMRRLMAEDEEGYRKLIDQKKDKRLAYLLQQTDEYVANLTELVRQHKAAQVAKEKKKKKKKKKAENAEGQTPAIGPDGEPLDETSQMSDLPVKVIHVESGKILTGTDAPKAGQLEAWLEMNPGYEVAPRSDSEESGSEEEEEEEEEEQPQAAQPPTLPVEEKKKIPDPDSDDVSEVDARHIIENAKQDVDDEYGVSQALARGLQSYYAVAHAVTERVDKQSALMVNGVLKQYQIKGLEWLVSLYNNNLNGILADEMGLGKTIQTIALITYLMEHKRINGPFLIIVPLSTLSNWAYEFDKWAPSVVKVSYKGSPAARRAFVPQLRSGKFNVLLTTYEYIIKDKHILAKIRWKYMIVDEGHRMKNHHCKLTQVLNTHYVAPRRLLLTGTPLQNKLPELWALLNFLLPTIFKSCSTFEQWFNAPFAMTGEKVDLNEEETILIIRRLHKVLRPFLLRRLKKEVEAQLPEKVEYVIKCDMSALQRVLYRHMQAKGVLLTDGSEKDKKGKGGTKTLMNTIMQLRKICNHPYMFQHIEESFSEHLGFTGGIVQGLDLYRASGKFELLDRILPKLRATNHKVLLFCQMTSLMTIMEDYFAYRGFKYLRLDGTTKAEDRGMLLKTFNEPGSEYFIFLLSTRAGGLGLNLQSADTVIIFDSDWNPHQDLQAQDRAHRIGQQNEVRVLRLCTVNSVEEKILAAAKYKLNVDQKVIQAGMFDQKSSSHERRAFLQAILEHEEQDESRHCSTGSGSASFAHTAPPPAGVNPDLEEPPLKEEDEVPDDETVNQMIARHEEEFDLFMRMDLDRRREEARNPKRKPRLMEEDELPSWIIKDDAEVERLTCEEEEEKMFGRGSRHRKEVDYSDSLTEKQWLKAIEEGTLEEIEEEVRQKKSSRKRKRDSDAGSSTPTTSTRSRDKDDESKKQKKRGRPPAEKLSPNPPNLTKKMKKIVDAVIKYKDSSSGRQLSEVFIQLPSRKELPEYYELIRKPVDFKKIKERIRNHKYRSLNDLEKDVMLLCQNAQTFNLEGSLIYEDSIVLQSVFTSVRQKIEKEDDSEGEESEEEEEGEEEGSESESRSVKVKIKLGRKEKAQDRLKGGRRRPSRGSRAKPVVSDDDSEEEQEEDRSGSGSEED
Procedure, shortened: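 Luminescence read-out: ADP formed by BRG-1 ATPase is converted to ATP and detected by luciferase. Residual ATP is first removed with ADP-Glo Reagent for 40 min at RT; detection reagent is then incubated 60 min at RT before reading.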

Row | Compound | growth of PKCi-resistant cells relative to parental MP41 cell line [1] | Ratio (BRG1 IC50 (μM) divided by BRM IC50 (μM)) (BRM) | IC50 (BRM) | IC50 (BRG-1)
1 | CC1(N)CCN(c2cccnc2NC(=O)c2nc(-c3ncccc3C(F)(F)F)cnc2N)CC1 [LXS196] | could tolerate growth at higher concentrations of LXS196 | – | – | –
2 | O=C(NCc1cc2cc(-c3cncc(C4CC4)n3)ccc2cn1)c1cc(F)c2c(c1)S(=O)(=O)[C@@H](F)COC2 [Compound 77] | – | 23.82 | 0.0028 µM | 0.067 µM
3 | COc1nc([C@@H](F)CF)ccc1-c1ccc2cnc(CNC(=O)c3cc(F)c4c(c3)S(=O)(=O)[C@@H](F)CCO4)cc2n1 [Compound 202] | – | 15.85 | 0.0061 µM | 0.125 µM
4 | O=C(NCc1cc2nc(N3CCOc4cc(C56CC(C5)C6)cnc43)ccc2cn1)c1cc(F)c2c(c1)S(=O)(=O)[C@@H](F)CCO2 [Compound 130] | – | 15.94 | 0.0045 µM | 0.0711 µM
5 | [2H]C1([2H])OC([2H])([2H])[C@H](F)S(=O)(=O)c2cc(C(=O)NCc3cc4nc(-c5ccc(C(F)F)nc5OC)ccc4cn3)cc(F)c21 [Compound 23] | – | – | 0.0016 µM | 0.0379 µM
6 | COc1nc(C(F)F)ccc1-c1ccc2cnc([C@H](C)NC(=O)c3ccc4c(c3)S(=O)(=O)[C@@H](F)CCOC4)cc2n1 [Compound 122] | – | 10.93 | 0.0042 µM | 0.0459 µM
7 | O=C(NCc1cc2nc(N3CCOc4ccc(C5CC5)nc43)ccc2cn1)c1ccc2c(c1)S(=O)(=O)[C@@H](F)COC2 [Compound 39] | – | 13.44 | 0.002 µM | 0.0246 µM
8 | COc1nc([C@H](C)F)ccc1-c1ccc2cnc(CNC(=O)c3cc(Cl)c4c(c3)S(=O)(=O)[C@@H](F)CCO4)cc2n1 [Compound 308] | – | 28.69 | 0.0104 µM | 0.329 µM
9 | O=C(NCc1cc2nc(N3CCOc4ccc(N5CC(F)C5)nc43)ccc2cn1)c1cc(F)c2c(c1)S(=O)(=O)[C@@H](F)COC2 [Compound 63] | – | 23.13 | 0.0026 µM | 0.0587 µM
10 | O=C(NCc1cc2cc(-c3cccc(C4CC4)n3)ccc2cn1)c1cc(F)c2c(c1)S(=O)(=O)[C@@H](F)COC2 [Compound 118] | – | 19.47 | 0.004 µM | 0.063 µM
11 | CCOc1ccnc2c1OCCN2c1ccc2cnc(CNC(=O)c3cc(Cl)c4c(c3)S(=O)(=O)[C@@H](F)COC4)cc2n1 [Compound 27] | – | 11.52 | 0.0018 µM | 0.0195 µM
12 | CN(C)c1cnc2c(c1)OCCN2c1ccc2cnc(CNC(=O)c3cc(F)c4c(c3)S(=O)(=O)[C@@H](F)COC4)cc2n1 [Compound 33] | – | 11.17 | 0.0019 µM | 0.0189 µM
13 | CCOc1cnc2c(c1)OCCN2c1ccc2cnc(CNC(=O)c3cc(F)c4c(c3)S(=O)(=O)[C@@H](F)CCO4)cc2n1 [Compound 247] | – | 13.39 | 0.0078 µM | 0.0985 µM
14 | CCOc1ccnc2c1CCCN2c1ccc2cnc(CNC(=O)c3cc(F)c4c(c3)S(=O)(=O)[C@@H](F)CCO4)cc2n1 [Compound 4] | – | 12.99 | 0.0011 µM | 0.0169 µM
15 | CCOCc1ccnc2c1OCCN2c1ccc2cnc(CNC(=O)c3cc(F)c4c(c3)S(=O)(=O)[C@@H](F)CCO4)cc2n1 [Compound 108] | – | 16.69 | 0.0039 µM | 0.0644 µM
16 | CCN(CC)c1cnc2c(c1)OCCN2c1ccc2cnc(CNC(=O)c3cc(F)c4c(c3)S(=O)(=O)[C@@H](F)COC4)cc2n1 [Compound 17] | – | 12.76 | 0.0015 µM | 0.0234 µM
17 | C[C@H]1C[C@@H]1c1ccc2c(n1)N(c1ccc3cnc(CNC(=O)c4cc(F)c5c(c4)S(=O)(=O)[C@@H](F)CCO5)cc3n1)CCO2 [Compound 20] | – | 26.66 | 0.0016 µM | 0.0447 µM
18 | Cc1ccc(-c2ccc3cnc(CNC(=O)c4cc(F)c5c(c4)S(=O)(=O)[C@@H](F)COC5)cc3n2)c(OC(F)F)n1 [Compound 73] | – | 20.62 | 0.0028 µM | 0.0571 µM

Row | Compound | growth of PKCi-resistant cells relative to parental MP41 cell line [1] | Ratio (BRG1 IC50 (μM) divided by BRM IC50 (μM)) (BRM) | IC50 (BRM) | IC50 (BRG-1)
19 | COc1cnc2c(c1)CCCN2c1ccc2cnc(CNC(=O)c3cc(F)c4c(c3)S(=O)(=O)[C@@H](F)CCO4)cc2c1 [Compound 305] | – | 12.14 | 0.0103 µM | 0.125 µM
20 | COCCOc1nccc2c1CCCN2c1ccc2cnc(CNC(=O)c3cc(F)c4c(c3)S(=O)(=O)[C@@H](F)CCO4)cc2n1 [Compound 295] | – | 16.68 | 0.0098 µM | 0.174 µM
21 | O=C(NCc1cc2nc(N3CCOc4cc(F)cnc43)ccc2cn1)c1cc(F)c2c(c1)S(=O)(=O)[C@@H](F)CCO2 [Compound 102] | – | 26.75 | 0.0036 µM | 0.0954 µM
22 | [2H]C1([2H])Oc2c(F)cc(C(=O)NCc3cc4nc(-c5ccc(OC(F)F)c(C6CC6)n5)ccc4cn3)cc2S(=O)(=O)[C@@]([2H])(F)C1([2H])[2H] [Compound 186] | – | 16.18 | 0.0057 µM | 0.102 µM
23 | O=C(NCc1cc2nc(N3CCOc4cc(C5(C(F)F)CC5)cnc43)ccc2cn1)c1cc(F)c2c(c1)S(=O)(=O)[C@@H](F)COC2 [Compound 25] | – | 21.51 | 0.0017 µM | 0.0439 µM
24 | O=C(NCc1cc2nc(-c3cccc(OC(F)F)c3)ccc2cn1)c1cc(F)c2c(c1)S(=O)(=O)[C@@H](F)COC2 [Compound 297, (2R)—N-[[2-[3-(difluoromethoxy)phenyl]-1,6-naphthyridin-7-yl]methyl]-2,6-difluoro-1,1-dioxo-3,5-dihydro-2H-4,1λ6-benzoxathiepine-8-carboxamide] | – | 29.64 | 0.0099 µM | 0.266 µM
25 | C[C@H]1N(c2cnc3c(c2)OCCN3c2ccc3cnc(CNC(=O)c4cc(F)c5c(c4)S(=O)(=O)[C@@H](F)CCO5)cc3n2)CC1(F)F [Compound 269] | – | 11.77 | 0.0089 µM | 0.11 µM
26 | O=C(NCc1cc2nc(N3CCOc4cc(F)cnc43)ccc2cn1)c1cc(F)c2c(c1)S(=O)(=O)[C@@H](F)CCO2 [Compound 282] | – | 17.58 | 0.0094 µM | 0.163 µM
27 | O=C(NCc1cc2nc(N3CCOc4cc(N5C[C@@H](F)[C@H](F)C5)cnc43)ccc2cn1)c1cc(F)c2c(c1)S(=O)(=O)[C@@H](F)CCO2 [Compound 66] | – | 24.64 | 0.0026 µM | 0.0785 µM
28 | C[C@@H]1CN(c2cccc(-c3ccc4cnc(CNC(=O)c5ccc6c(c5)S(=O)(=O)[C@@H](F)CCO6)cc4n3)n2)C[C@H](C)O1 [Compound 22] | – | 9.93 | 0.0016 µM | 0.0162 µM
29 | CCOc1nc(C(F)F)ccc1-c1ccc2cnc(CNC(=O)c3cc(F)c4c(c3)S(=O)(=O)[C@@H](F)COC4)cc2n1 [Compound 29] | – | 22.36 | 0.0018 µM | 0.035 µM
30 | CCOc1ccnc2c1OCCN2c1ccc2cnc(CNC(=O)c3cc(F)c4c(c3)S(=O)(=O)[C@@H](F)CCO4)cc2n1 [Compound 129] | – | 18.60 | 0.0045 µM | 0.111 µM
31 | O=C(NCc1cc2nc(-c3ccc(OC(F)F)c(C4CC4)n3)ccc2cn1)c1cc(F)c2c(c1)S(=O)(=O)[C@@H](F)COC2 [Compound 85] | – | 20.37 | 0.0031 µM | 0.0699 µM
32 | COc1nc(C)ccc1-c1ccc2cnc(CNC(=O)c3cc(F)c4c(c3)S(=O)(=O)[C@@H](F)CCO4)cc2n1 [Compound 245] | – | 17.91 | 0.0078 µM | 0.166 µM
33 | O=C(NCc1cc2nc(N3CCCc4c(OC(F)F)ccnc43)ccc2cn1)c1cc(F)c2c(c1)S(=O)(=O)[C@@H](F)CCO2 [Compound 169] | – | 10.91 | 0.0053 µM | 0.0583 µM
34 | COc1nscc1-c1ccc2cnc(CNC(=O)c3cc(F)c4c(c3)S(=O)(=O)[C@@H](F)CCO4)cc2n1 [Compound 288] | – | 26.09 | 0.0096 µM | 0.203 µM
35 | CO[C@H]1C[C@H]1c1cnc2c(c1)OCCN2c1ccc2cnc(CNC(=O)c3cc(F)c4c(c3)S(=O)(=O)[C@@H](F)CCO4)cc2n1 [Compound 45] | – | 12.59 | 0.0021 µM | 0.0258 µM

From patent US12139487B2, “Compounds and uses thereof” (Foghorn Therapeutics Inc., priority 2022, dated 2024)
